Laboratory results reported in ChEMBL document CHEMBL5291721, “A preclinical secondary pharmacology resource illuminates target-adverse drug reaction associations of marketed drugs” (Nat Commun, 2023).

Assays:
[1] = biological target: Beta-1 adrenergic receptor (Homo sapiens, UniProt P08588); type: functional
[2] = biological target: T1, Muscarinic acetylcholine receptor M2 (Homo sapiens, UniProt P08172); type: functional, cell-based
T1 sequence (P08172 whole entry): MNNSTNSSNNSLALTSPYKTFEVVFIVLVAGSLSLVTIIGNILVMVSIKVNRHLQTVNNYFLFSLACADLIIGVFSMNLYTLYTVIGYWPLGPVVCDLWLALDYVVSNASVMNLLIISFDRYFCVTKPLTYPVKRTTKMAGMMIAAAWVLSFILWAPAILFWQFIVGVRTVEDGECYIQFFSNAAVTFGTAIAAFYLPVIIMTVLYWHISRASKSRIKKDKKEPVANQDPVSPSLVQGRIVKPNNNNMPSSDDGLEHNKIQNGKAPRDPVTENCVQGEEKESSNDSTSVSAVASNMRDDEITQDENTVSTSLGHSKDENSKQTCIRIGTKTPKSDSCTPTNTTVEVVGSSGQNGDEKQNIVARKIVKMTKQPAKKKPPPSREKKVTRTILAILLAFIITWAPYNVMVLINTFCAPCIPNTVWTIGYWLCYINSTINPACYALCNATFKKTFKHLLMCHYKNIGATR

[3] = biological target: cGMP-inhibited 3',5'-cyclic phosphodiesterase 3A (Homo sapiens, UniProt Q14432); type: functional
Chain of cGMP-inhibited 3',5'-cyclic phosphodiesterase 3A (Q14432 whole entry): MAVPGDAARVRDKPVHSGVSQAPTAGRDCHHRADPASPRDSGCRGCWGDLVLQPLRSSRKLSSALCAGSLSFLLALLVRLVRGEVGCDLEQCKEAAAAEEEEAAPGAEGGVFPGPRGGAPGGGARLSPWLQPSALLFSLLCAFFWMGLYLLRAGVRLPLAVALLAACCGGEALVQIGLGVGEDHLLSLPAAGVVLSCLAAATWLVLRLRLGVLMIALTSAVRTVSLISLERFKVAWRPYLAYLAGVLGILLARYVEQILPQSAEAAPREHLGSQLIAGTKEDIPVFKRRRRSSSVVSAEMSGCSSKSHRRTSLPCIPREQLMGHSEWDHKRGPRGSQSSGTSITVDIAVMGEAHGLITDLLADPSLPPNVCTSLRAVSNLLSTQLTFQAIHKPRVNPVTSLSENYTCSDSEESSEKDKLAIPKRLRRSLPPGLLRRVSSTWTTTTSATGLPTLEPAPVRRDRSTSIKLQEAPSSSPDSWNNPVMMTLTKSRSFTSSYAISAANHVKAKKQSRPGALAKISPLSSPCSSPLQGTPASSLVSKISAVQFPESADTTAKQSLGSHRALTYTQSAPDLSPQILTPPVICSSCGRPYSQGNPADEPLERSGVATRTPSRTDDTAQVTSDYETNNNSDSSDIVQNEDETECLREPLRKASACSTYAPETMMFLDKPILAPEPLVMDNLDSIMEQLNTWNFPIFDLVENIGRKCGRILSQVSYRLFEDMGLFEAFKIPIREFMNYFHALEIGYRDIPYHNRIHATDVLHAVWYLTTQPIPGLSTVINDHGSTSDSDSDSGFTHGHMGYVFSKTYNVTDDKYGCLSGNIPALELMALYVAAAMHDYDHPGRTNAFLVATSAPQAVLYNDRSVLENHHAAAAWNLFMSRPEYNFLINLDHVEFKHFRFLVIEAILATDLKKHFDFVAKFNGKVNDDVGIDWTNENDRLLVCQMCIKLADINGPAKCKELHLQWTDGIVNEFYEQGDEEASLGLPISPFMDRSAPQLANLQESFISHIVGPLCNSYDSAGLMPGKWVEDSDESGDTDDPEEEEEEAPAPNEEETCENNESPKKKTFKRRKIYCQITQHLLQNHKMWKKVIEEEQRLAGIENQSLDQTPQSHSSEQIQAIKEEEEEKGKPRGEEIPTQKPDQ

[4] = biological target: D(3) dopamine receptor (Homo sapiens, UniProt P35462)
Chain of D(3) dopamine receptor (P35462 whole entry): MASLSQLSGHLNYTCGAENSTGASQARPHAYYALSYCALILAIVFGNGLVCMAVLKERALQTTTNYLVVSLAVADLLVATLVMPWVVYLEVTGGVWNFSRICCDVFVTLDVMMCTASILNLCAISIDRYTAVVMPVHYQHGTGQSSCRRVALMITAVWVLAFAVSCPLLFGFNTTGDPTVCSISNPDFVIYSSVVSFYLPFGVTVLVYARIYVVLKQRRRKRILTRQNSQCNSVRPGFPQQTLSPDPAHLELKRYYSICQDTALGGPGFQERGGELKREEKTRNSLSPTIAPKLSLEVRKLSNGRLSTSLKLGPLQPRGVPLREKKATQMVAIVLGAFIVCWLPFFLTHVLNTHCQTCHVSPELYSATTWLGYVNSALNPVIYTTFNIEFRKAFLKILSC

[5] = biological target: T2, 5-hydroxytryptamine receptor 1A (Homo sapiens, UniProt P08908); type: functional, cell-based
T2 sequence (P08908 whole entry): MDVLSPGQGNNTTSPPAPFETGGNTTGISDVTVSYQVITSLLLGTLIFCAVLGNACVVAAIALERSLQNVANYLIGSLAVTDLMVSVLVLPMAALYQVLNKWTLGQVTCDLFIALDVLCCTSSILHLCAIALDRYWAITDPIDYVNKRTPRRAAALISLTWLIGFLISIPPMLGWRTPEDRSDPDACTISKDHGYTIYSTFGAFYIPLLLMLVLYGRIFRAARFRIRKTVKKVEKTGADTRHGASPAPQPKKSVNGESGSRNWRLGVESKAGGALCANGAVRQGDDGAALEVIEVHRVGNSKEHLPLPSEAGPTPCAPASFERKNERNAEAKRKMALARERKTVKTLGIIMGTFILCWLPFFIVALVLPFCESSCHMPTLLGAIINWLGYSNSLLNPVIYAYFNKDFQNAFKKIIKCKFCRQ

[6] = biological target: Mu-type opioid receptor (Homo sapiens, UniProt P35372); assay: biochemical; type: functional
[7] = biological target: T3, Adenosine receptor A3 (Homo sapiens, UniProt P0DMS8)
T3 sequence (P0DMS8 whole entry): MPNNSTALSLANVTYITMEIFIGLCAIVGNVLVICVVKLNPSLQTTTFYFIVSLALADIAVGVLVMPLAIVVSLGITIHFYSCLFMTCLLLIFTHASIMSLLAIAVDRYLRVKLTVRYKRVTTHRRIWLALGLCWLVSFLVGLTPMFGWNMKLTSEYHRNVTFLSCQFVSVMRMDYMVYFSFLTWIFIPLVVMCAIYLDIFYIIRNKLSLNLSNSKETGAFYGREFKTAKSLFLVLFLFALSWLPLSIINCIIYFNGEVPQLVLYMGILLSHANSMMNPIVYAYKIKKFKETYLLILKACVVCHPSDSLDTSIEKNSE

[8] = biological target: Sodium-dependent noradrenaline transporter (Homo sapiens, UniProt P23975)
Chain of Sodium-dependent noradrenaline transporter (P23975 whole entry): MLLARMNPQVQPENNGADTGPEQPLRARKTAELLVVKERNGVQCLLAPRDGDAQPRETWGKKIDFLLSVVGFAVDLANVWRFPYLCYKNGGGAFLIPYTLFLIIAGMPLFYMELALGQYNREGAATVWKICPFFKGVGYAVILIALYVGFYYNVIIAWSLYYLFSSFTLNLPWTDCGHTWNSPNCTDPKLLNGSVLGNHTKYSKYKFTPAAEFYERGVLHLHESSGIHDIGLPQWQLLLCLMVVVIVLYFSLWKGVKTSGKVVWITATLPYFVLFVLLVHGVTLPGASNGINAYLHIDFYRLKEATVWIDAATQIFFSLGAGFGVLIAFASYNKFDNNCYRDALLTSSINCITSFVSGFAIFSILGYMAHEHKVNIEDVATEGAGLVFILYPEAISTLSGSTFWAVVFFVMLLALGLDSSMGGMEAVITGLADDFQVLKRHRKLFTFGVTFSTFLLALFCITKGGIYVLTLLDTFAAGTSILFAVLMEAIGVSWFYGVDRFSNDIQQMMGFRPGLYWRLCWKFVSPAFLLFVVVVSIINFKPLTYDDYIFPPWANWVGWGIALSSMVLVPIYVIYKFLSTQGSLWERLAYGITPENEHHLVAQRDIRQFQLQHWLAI

[9] = biological target: T4, Endothelin-1 receptor (Homo sapiens, UniProt P25101)
T4 sequence (P25101 whole entry): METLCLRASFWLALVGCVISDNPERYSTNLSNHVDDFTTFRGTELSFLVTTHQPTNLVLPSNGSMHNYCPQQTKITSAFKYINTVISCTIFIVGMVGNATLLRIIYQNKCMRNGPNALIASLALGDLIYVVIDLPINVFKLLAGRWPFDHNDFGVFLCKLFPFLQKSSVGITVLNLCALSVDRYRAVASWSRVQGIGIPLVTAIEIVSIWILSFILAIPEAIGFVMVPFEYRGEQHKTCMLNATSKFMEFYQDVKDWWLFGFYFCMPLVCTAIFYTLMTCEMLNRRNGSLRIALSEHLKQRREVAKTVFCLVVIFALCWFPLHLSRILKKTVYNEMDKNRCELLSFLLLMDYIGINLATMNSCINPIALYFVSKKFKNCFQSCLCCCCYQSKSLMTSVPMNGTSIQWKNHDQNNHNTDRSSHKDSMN

[10] = biological target: T5, Cholecystokinin receptor type A (Homo sapiens, UniProt P32238)
T5 sequence (P32238 whole entry): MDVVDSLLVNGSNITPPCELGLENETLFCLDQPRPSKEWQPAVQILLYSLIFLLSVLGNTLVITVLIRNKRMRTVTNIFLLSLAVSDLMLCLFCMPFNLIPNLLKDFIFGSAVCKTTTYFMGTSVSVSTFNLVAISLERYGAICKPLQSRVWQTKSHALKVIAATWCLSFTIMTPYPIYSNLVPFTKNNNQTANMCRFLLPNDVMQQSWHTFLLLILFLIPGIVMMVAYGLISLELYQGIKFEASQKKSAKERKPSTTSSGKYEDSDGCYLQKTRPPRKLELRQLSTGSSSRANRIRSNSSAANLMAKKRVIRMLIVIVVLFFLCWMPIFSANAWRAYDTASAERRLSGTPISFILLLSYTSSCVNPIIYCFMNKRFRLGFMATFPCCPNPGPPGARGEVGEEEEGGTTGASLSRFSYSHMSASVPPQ

[11] = biological target: 3',5'-cyclic-AMP phosphodiesterase 4D (Homo sapiens, UniProt Q08499); type: functional
Chain of 3',5'-cyclic-AMP phosphodiesterase 4D (Q08499 whole entry): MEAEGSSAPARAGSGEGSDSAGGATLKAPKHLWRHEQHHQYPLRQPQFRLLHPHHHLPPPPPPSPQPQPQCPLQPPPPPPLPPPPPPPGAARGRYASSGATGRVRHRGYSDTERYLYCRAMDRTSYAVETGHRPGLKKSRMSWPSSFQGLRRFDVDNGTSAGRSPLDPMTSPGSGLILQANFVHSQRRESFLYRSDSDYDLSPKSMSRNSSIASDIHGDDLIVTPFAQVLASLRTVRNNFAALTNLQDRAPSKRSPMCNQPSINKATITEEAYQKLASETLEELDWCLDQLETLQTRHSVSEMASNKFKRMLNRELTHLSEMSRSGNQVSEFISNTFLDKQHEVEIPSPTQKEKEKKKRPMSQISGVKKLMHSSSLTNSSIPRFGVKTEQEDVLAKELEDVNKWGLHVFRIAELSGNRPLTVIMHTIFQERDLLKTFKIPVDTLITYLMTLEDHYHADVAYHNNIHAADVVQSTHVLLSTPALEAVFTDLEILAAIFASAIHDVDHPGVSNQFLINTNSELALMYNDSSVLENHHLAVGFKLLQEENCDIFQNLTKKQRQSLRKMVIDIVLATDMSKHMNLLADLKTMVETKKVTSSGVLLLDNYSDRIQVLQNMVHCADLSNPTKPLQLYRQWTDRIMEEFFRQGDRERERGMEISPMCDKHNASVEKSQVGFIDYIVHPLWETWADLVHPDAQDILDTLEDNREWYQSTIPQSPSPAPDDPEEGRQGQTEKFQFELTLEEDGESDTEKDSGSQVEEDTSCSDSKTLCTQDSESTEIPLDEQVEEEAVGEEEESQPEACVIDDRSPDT

[12] = biological target: Growth hormone secretagogue receptor type 1 (Homo sapiens, UniProt Q92847)
Chain of Growth hormone secretagogue receptor type 1 (Q92847 whole entry): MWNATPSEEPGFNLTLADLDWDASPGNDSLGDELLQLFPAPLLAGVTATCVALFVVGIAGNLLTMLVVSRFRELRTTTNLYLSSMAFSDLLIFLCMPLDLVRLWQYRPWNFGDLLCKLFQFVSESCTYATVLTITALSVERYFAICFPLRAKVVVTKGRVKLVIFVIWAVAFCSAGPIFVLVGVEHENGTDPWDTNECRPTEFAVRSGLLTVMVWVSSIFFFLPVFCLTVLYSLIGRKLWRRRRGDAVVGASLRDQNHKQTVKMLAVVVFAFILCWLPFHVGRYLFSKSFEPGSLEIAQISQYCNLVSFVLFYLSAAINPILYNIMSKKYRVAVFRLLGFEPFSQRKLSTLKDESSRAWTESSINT

[13] = biological target: Adenosine receptor A2a (Homo sapiens, UniProt P29274)
Chain of Adenosine receptor A2a (P29274 whole entry): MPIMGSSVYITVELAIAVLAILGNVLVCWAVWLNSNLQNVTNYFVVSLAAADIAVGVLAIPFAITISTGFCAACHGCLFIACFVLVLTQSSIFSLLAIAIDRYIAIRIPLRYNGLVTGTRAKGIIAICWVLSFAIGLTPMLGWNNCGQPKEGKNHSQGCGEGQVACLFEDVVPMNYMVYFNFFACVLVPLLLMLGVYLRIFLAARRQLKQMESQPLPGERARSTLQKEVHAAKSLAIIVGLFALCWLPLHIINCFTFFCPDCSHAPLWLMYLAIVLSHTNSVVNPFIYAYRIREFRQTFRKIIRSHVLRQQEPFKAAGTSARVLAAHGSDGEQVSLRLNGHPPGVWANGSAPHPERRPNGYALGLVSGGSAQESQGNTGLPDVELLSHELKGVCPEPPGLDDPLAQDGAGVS

[14] = biological target: Voltage-gated inwardly rectifying potassium channel KCNH2 (Homo sapiens, UniProt Q12809); type: functional; conditions: read-out: AC50
Chain of Voltage-gated inwardly rectifying potassium channel KCNH2 (Q12809 whole entry): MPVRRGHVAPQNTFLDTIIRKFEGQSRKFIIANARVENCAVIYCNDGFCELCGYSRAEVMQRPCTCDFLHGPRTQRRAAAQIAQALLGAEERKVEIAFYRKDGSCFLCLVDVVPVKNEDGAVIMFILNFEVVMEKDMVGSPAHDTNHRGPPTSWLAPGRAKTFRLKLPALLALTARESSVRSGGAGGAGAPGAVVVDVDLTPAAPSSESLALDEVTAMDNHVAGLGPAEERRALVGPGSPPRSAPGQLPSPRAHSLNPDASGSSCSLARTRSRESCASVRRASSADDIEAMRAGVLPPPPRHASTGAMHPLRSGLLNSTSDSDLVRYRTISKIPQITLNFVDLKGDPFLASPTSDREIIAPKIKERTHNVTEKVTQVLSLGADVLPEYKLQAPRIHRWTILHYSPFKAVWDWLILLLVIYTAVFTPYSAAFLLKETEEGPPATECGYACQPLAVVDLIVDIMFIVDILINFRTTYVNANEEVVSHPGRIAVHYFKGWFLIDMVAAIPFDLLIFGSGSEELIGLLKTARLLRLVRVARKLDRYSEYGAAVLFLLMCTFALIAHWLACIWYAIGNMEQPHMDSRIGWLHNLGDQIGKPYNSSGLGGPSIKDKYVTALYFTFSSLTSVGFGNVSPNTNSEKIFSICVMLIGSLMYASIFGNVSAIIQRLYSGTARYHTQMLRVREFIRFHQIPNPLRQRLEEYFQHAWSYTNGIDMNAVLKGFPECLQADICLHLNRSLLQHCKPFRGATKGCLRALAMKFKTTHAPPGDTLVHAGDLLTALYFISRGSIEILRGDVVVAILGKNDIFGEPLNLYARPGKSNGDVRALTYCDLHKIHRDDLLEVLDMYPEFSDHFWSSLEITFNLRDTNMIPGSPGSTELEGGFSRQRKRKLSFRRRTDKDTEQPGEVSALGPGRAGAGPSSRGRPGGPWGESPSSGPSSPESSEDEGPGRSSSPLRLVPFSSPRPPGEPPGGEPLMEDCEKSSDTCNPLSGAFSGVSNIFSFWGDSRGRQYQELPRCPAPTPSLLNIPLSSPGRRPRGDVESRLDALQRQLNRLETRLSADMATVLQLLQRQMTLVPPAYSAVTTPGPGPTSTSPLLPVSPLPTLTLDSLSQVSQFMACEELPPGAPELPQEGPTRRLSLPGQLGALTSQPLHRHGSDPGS

[15] = biological target: Sodium-dependent serotonin transporter (Homo sapiens, UniProt P31645)
Also: assay procedure not described here.

Compound	AC50 [1] [µM]	AC50 [2] [µM]	AC50 [3] [µM]	AC50 [4] [µM]	AC50 [5] [µM]	AC50 [6] [µM]	AC50 [7] [µM]	AC50 [8] [µM]	AC50 [9] [µM]	AC50 [10] [µM]	AC50 [11] [µM]	AC50 [12] [µM]	AC50 [13] [µM]	AC50 [14] [µM]	AC50 [15] [µM]
Nc1ccc(C(=O)O)c(O)c1 [AMINOSALICYLIC ACID]	> 30	> 30	> 30	> 30	> 30	> 30	> 30	> 30	> 30	> 30	> 30	> 30	> 30	> 30	
CC(=O)OCC(=O)[C@@]1(O)CC[C@H]2[C@@H]3CCC4=CC(=O)CC[C@]4(C)C3=CC[C@@]21C [ANECORTAVE ACETATE]	> 10	> 10	> 30	> 30	> 10		> 10	> 10		> 10	> 30	> 10	> 10	> 30	> 10
NS(=O)(=O)c1cc2c(cc1C(F)(F)F)NC(Cc1ccccc1)NS2(=O)=O (stereo unspecified) [BENDROFLUMETHIAZIDE]	> 10	> 10	> 30	> 30	> 10		> 10	> 30		> 10	> 30	> 10	> 10	> 30	> 30
COc1cc(OC)c(C(=O)CCCN2CCCC2)c(OC)c1 [BUFLOMEDIL]	> 30	> 30	> 30	> 30	> 30	> 30	> 30	> 30	> 30	> 30	> 30	> 30	> 30	2.6	
CS(=O)(=O)OCCCCOS(C)(=O)=O [BUSULFAN]	> 30	> 30	> 30	> 30	> 30	> 30	> 30	> 30	> 30	> 30	> 30	> 30	> 30	> 30	
CCCCCCNC(=O)n1cc(F)c(=O)[nH]c1=O [CARMOFUR]	> 30	> 30	> 30	> 30	> 30	> 30	> 30	> 30	> 30	> 30	> 30	> 30	> 30	> 30	
CC(C)(C)NCC(O)c1cc(Cl)c(N)c(Cl)c1 (stereo unspecified) [CLENBUTEROL]	0.112	> 30	> 30	> 30	3.02	> 30	> 30	27.9	> 30	> 30	> 30	> 30	> 30	> 30	
